Source: the kinase profiling compilation of Christmann-Franck et al. (2016)

Biological target: MERTK (human) (UniProt Q12866)
Test: radiometric filter-binding kinase assay, Kinase HotSpot
Conditions: compound 0.5 µM; ATP 10 µM

| SMILES | residual activity |
| --- | --- |
| COc1cc2c(N3CCN(C(=O)Nc4ccc(OC(C)C)cc4)CC3)ncnc2cc1OCCCN1CCCCC1 | 106% |
| N#C/C(=C1/Nc2ccccc2S1)c1ccnc(NCCc2cccnc2)n1 | 88.9% |
| O=c1c(-c2ccc(F)cc2)c(-c2ccncc2)[nH]n1-c1ccc(Cl)cc1 | 82.7% |
| Cn1cc(/C=C2\C(=O)Nc3ccc(S(N)(=O)=O)cc32)c2ccccc21 | 45.9% |
| Nc1ncnc2c1cnn2-c1ccccc1 | 94.3% |

Biological target: HIPK1 (human) (UniProt Q86Z02)
Test: as above
Conditions: compound 0.5 µM; ATP 10 µM

Chain of HIPK1 (human) (Q86Z02 whole entry, looked up): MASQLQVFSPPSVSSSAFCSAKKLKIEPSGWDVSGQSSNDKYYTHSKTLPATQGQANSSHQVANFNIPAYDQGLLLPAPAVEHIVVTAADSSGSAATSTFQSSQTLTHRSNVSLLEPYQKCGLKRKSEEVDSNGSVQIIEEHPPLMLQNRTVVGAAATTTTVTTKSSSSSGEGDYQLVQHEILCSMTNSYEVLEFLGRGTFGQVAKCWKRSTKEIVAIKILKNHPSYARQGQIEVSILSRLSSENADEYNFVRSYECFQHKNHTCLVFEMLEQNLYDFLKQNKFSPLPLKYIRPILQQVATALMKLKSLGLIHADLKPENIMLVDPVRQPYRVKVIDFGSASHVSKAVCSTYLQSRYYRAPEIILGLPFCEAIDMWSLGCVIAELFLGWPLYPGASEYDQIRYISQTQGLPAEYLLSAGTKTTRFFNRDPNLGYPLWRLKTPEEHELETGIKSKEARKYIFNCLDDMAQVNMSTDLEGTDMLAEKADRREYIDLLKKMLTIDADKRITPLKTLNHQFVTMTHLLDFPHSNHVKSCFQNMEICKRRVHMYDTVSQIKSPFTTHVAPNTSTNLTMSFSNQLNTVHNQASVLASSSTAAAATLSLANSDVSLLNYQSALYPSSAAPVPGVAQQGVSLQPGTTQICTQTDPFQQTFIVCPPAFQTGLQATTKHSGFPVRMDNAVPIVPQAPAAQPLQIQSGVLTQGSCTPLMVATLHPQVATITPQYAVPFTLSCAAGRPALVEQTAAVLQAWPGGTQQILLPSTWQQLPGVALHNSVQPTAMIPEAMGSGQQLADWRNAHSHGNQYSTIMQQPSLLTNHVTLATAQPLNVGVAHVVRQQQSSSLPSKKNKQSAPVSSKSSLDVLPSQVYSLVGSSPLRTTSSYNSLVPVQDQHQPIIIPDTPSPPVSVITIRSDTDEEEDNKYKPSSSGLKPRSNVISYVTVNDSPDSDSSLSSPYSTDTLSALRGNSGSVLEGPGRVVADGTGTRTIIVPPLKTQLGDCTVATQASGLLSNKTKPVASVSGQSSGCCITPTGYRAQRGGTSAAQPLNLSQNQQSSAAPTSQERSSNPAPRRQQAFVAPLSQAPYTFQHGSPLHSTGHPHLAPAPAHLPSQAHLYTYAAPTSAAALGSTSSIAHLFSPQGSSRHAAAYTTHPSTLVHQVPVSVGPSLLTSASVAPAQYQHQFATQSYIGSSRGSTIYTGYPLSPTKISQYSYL

| SMILES | residual activity |
| --- | --- |
| COc1cc2c(N3CCN(C(=O)Nc4ccc(OC(C)C)cc4)CC3)ncnc2cc1OCCCN1CCCCC1 | 98.9% |
| N#C/C(=C1/Nc2ccccc2S1)c1ccnc(NCCc2cccnc2)n1 | 109% |
| Cn1cc(/C=C2\C(=O)Nc3ccc(S(N)(=O)=O)cc32)c2ccccc21 | 97.2% |
| Nc1ncnc2c1cnn2-c1ccccc1 | 98.4% |

Biological target: PRKG2 (human) (UniProt Q13237)
Test: as above
Conditions: compound 0.5 µM; ATP 10 µM

| SMILES | residual activity |
| --- | --- |
| COc1cc2c(N3CCN(C(=O)Nc4ccc(OC(C)C)cc4)CC3)ncnc2cc1OCCCN1CCCCC1 | 105% |
| N#C/C(=C1/Nc2ccccc2S1)c1ccnc(NCCc2cccnc2)n1 | 98.1% |
| O=c1c(-c2ccc(F)cc2)c(-c2ccncc2)[nH]n1-c1ccc(Cl)cc1 | 110% |
| Cn1cc(/C=C2\C(=O)Nc3ccc(S(N)(=O)=O)cc32)c2ccccc21 | 85% |
| Nc1ncnc2c1cnn2-c1ccccc1 | 99.2% |

Biological target: MELK (human) (UniProt Q14680)
Test: as above
Conditions: compound 0.5 µM; ATP 10 µM

Chain of MELK (human) (Q14680 whole entry, looked up): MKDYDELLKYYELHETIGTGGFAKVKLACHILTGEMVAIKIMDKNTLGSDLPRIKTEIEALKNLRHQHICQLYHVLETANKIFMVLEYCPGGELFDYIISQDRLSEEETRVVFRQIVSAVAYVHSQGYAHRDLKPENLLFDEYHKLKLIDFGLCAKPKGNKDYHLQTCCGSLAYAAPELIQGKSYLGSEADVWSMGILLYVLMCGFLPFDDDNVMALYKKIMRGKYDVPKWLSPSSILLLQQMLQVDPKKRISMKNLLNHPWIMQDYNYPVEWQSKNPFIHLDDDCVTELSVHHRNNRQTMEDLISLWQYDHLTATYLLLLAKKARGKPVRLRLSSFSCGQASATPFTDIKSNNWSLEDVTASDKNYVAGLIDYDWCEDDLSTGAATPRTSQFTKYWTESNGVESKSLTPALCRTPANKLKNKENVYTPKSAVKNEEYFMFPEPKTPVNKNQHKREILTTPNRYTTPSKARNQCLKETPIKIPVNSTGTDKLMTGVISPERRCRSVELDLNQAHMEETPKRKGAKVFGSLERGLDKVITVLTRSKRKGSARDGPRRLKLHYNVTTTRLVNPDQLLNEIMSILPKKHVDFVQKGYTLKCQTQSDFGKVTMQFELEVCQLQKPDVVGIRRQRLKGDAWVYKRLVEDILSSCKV

| SMILES | residual activity |
| --- | --- |
| COc1cc2c(N3CCN(C(=O)Nc4ccc(OC(C)C)cc4)CC3)ncnc2cc1OCCCN1CCCCC1 | 87.9% |
| N#C/C(=C1/Nc2ccccc2S1)c1ccnc(NCCc2cccnc2)n1 | 91.7% |
| O=c1c(-c2ccc(F)cc2)c(-c2ccncc2)[nH]n1-c1ccc(Cl)cc1 | 86.5% |
| Cn1cc(/C=C2\C(=O)Nc3ccc(S(N)(=O)=O)cc32)c2ccccc21 | 63% |
| Nc1ncnc2c1cnn2-c1ccccc1 | 92.6% |

Biological target: GSK3A (human) (UniProt P49840)
Test: as above
Conditions: compound 0.5 µM; ATP 10 µM

| SMILES | residual activity |
| --- | --- |
| COc1cc2c(N3CCN(C(=O)Nc4ccc(OC(C)C)cc4)CC3)ncnc2cc1OCCCN1CCCCC1 | 105% |
| N#C/C(=C1/Nc2ccccc2S1)c1ccnc(NCCc2cccnc2)n1 | 2.42% |
| O=c1c(-c2ccc(F)cc2)c(-c2ccncc2)[nH]n1-c1ccc(Cl)cc1 | 93.3% |
| Cn1cc(/C=C2\C(=O)Nc3ccc(S(N)(=O)=O)cc32)c2ccccc21 | 100% |
| Nc1ncnc2c1cnn2-c1ccccc1 | 90.3% |

Biological target: FGFR3 (human) (UniProt P22607)
Test: as above
Conditions: compound 0.5 µM; ATP 10 µM

| SMILES | residual activity |
| --- | --- |
| COc1cc2c(N3CCN(C(=O)Nc4ccc(OC(C)C)cc4)CC3)ncnc2cc1OCCCN1CCCCC1 | 93.2% |
| N#C/C(=C1/Nc2ccccc2S1)c1ccnc(NCCc2cccnc2)n1 | 98.2% |
| O=c1c(-c2ccc(F)cc2)c(-c2ccncc2)[nH]n1-c1ccc(Cl)cc1 | 88.1% |
| Cn1cc(/C=C2\C(=O)Nc3ccc(S(N)(=O)=O)cc32)c2ccccc21 | 33.8% |
| Nc1ncnc2c1cnn2-c1ccccc1 | 97.9% |

Biological target: AURKB (human) (UniProt Q96GD4)
Test: as above
Conditions: compound 0.5 µM; ATP 10 µM

| SMILES | residual activity |
| --- | --- |
| COc1cc2c(N3CCN(C(=O)Nc4ccc(OC(C)C)cc4)CC3)ncnc2cc1OCCCN1CCCCC1 | 89.6% |
| N#C/C(=C1/Nc2ccccc2S1)c1ccnc(NCCc2cccnc2)n1 | 94% |
| O=c1c(-c2ccc(F)cc2)c(-c2ccncc2)[nH]n1-c1ccc(Cl)cc1 | 95.1% |
| Cn1cc(/C=C2\C(=O)Nc3ccc(S(N)(=O)=O)cc32)c2ccccc21 | 10.5% |
| Nc1ncnc2c1cnn2-c1ccccc1 | 99.2% |

Biological target: PRKD2 (human) (UniProt Q9BZL6)
Test: as above
Conditions: compound 0.5 µM; ATP 10 µM

| SMILES | residual activity |
| --- | --- |
| COc1cc2c(N3CCN(C(=O)Nc4ccc(OC(C)C)cc4)CC3)ncnc2cc1OCCCN1CCCCC1 | 96.4% |
| N#C/C(=C1/Nc2ccccc2S1)c1ccnc(NCCc2cccnc2)n1 | 79.2% |
| O=c1c(-c2ccc(F)cc2)c(-c2ccncc2)[nH]n1-c1ccc(Cl)cc1 | 73.4% |
| Cn1cc(/C=C2\C(=O)Nc3ccc(S(N)(=O)=O)cc32)c2ccccc21 | 87.2% |
| Nc1ncnc2c1cnn2-c1ccccc1 | 126% |

Biological target: PRKACA (human) (UniProt P17612)
Test: as above
Conditions: compound 0.5 µM; ATP 10 µM

| SMILES | residual activity |
| --- | --- |
| COc1cc2c(N3CCN(C(=O)Nc4ccc(OC(C)C)cc4)CC3)ncnc2cc1OCCCN1CCCCC1 | 103% |
| N#C/C(=C1/Nc2ccccc2S1)c1ccnc(NCCc2cccnc2)n1 | 103% |
| O=c1c(-c2ccc(F)cc2)c(-c2ccncc2)[nH]n1-c1ccc(Cl)cc1 | 90.7% |
| Cn1cc(/C=C2\C(=O)Nc3ccc(S(N)(=O)=O)cc32)c2ccccc21 | 104% |

Biological target: FLT3 (human) (UniProt P36888)
Test: as above
Conditions: compound 0.5 µM; ATP 10 µM

Chain of FLT3 (human) (P36888 whole entry, looked up): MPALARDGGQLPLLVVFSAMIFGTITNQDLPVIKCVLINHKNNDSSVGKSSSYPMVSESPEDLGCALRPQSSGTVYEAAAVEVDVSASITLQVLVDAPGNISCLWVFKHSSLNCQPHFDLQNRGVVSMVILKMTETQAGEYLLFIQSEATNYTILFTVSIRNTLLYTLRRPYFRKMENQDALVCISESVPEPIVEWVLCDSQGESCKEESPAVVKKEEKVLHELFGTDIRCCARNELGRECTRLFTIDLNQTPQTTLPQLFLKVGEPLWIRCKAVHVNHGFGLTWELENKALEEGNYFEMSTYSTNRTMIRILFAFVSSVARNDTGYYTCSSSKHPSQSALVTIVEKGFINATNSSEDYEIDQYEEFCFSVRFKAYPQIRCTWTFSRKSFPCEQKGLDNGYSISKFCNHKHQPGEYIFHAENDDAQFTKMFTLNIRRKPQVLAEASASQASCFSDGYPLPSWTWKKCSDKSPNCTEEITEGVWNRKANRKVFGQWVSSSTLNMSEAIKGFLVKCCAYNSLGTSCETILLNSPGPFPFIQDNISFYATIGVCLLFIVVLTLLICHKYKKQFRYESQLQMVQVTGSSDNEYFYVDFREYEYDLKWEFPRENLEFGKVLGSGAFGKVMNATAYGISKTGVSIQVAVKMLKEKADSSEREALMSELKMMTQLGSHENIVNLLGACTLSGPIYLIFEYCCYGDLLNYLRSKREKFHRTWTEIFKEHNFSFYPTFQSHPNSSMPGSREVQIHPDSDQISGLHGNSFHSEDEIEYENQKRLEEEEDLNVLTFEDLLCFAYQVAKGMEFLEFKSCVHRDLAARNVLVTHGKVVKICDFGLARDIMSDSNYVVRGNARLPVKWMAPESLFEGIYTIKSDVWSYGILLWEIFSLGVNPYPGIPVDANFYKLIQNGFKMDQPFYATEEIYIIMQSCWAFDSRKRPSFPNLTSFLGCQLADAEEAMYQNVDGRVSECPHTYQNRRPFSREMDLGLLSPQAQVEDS

| SMILES | residual activity |
| --- | --- |
| N#C/C(=C1/Nc2ccccc2S1)c1ccnc(NCCc2cccnc2)n1 | 58.2% |
| O=c1c(-c2ccc(F)cc2)c(-c2ccncc2)[nH]n1-c1ccc(Cl)cc1 | 92.8% |
| Cn1cc(/C=C2\C(=O)Nc3ccc(S(N)(=O)=O)cc32)c2ccccc21 | 1.56% |
| Nc1ncnc2c1cnn2-c1ccccc1 | 88.9% |

Biological target: DAPK2 (human) (UniProt Q9UIK4)
Test: as above
Conditions: compound 0.5 µM; ATP 10 µM

Chain of DAPK2 (human) (Q9UIK4 whole entry, looked up): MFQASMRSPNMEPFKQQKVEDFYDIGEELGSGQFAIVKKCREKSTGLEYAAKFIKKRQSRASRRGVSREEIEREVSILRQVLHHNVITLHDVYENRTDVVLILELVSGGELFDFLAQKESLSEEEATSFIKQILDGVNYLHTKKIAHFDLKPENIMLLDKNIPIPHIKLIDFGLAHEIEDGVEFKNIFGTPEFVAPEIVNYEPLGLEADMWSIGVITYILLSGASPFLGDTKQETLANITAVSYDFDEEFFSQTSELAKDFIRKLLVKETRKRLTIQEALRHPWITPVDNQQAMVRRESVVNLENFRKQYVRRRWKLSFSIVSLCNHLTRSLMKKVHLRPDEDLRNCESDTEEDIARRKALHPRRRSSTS

| SMILES | residual activity |
| --- | --- |
| COc1cc2c(N3CCN(C(=O)Nc4ccc(OC(C)C)cc4)CC3)ncnc2cc1OCCCN1CCCCC1 | 104% |
| N#C/C(=C1/Nc2ccccc2S1)c1ccnc(NCCc2cccnc2)n1 | 119% |
| O=c1c(-c2ccc(F)cc2)c(-c2ccncc2)[nH]n1-c1ccc(Cl)cc1 | 104% |
| Nc1ncnc2c1cnn2-c1ccccc1 | 96.7% |

Biological target: PRKCD (human) (UniProt Q05655)
Test: as above
Conditions: compound 0.5 µM; ATP 10 µM

Chain of PRKCD (human) (Q05655 whole entry, looked up): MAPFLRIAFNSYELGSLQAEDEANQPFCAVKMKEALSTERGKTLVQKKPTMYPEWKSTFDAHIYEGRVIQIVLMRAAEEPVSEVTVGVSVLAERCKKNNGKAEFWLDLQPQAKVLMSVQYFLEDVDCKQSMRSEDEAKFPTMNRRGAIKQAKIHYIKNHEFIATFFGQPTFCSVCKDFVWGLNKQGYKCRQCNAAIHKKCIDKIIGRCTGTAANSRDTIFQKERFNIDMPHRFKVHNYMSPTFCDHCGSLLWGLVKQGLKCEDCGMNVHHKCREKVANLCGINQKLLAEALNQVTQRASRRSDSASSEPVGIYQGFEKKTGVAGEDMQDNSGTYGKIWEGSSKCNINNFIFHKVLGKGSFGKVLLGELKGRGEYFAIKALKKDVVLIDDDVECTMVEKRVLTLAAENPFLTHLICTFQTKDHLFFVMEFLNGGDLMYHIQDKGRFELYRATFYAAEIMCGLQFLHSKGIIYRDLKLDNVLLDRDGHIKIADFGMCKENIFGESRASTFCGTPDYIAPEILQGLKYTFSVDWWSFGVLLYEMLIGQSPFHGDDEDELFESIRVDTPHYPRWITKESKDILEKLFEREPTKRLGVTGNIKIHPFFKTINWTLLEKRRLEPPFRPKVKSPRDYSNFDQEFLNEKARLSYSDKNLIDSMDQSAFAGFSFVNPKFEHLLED

| SMILES | residual activity |
| --- | --- |
| COc1cc2c(N3CCN(C(=O)Nc4ccc(OC(C)C)cc4)CC3)ncnc2cc1OCCCN1CCCCC1 | 101% |
| N#C/C(=C1/Nc2ccccc2S1)c1ccnc(NCCc2cccnc2)n1 | 92.2% |
| O=c1c(-c2ccc(F)cc2)c(-c2ccncc2)[nH]n1-c1ccc(Cl)cc1 | 92.6% |
| Cn1cc(/C=C2\C(=O)Nc3ccc(S(N)(=O)=O)cc32)c2ccccc21 | 91.3% |
| Nc1ncnc2c1cnn2-c1ccccc1 | 93% |

Biological target: PDGFRB (human) (UniProt P09619)
Test: as above
Conditions: compound 0.5 µM; ATP 10 µM

| SMILES | residual activity |
| --- | --- |
| N#C/C(=C1/Nc2ccccc2S1)c1ccnc(NCCc2cccnc2)n1 | 103% |
| O=c1c(-c2ccc(F)cc2)c(-c2ccncc2)[nH]n1-c1ccc(Cl)cc1 | 101% |
| Cn1cc(/C=C2\C(=O)Nc3ccc(S(N)(=O)=O)cc32)c2ccccc21 | 66% |
| Nc1ncnc2c1cnn2-c1ccccc1 | 94.7% |

Biological target: IRAK4 (human) (UniProt Q9NWZ3)
Test: as above
Conditions: compound 0.5 µM; ATP 10 µM

| SMILES | residual activity |
| --- | --- |
| COc1cc2c(N3CCN(C(=O)Nc4ccc(OC(C)C)cc4)CC3)ncnc2cc1OCCCN1CCCCC1 | 96% |
| N#C/C(=C1/Nc2ccccc2S1)c1ccnc(NCCc2cccnc2)n1 | 83.7% |
| O=c1c(-c2ccc(F)cc2)c(-c2ccncc2)[nH]n1-c1ccc(Cl)cc1 | 81.9% |
| Cn1cc(/C=C2\C(=O)Nc3ccc(S(N)(=O)=O)cc32)c2ccccc21 | 2.98% |
| Nc1ncnc2c1cnn2-c1ccccc1 | 89.4% |

Biological target: MAPK8 (human) (UniProt P45983)
Test: as above
Conditions: compound 0.5 µM; ATP 10 µM

| SMILES | residual activity |
| --- | --- |
| COc1cc2c(N3CCN(C(=O)Nc4ccc(OC(C)C)cc4)CC3)ncnc2cc1OCCCN1CCCCC1 | 105% |
| N#C/C(=C1/Nc2ccccc2S1)c1ccnc(NCCc2cccnc2)n1 | 87.6% |
| O=c1c(-c2ccc(F)cc2)c(-c2ccncc2)[nH]n1-c1ccc(Cl)cc1 | 90.2% |
| Cn1cc(/C=C2\C(=O)Nc3ccc(S(N)(=O)=O)cc32)c2ccccc21 | 108% |
| Nc1ncnc2c1cnn2-c1ccccc1 | 87.1% |

Biological target: MAPK9 (human) (UniProt P45984)
Test: as above
Conditions: compound 0.5 µM; ATP 10 µM

| SMILES | residual activity |
| --- | --- |
| COc1cc2c(N3CCN(C(=O)Nc4ccc(OC(C)C)cc4)CC3)ncnc2cc1OCCCN1CCCCC1 | 103% |
| N#C/C(=C1/Nc2ccccc2S1)c1ccnc(NCCc2cccnc2)n1 | 67.5% |
| O=c1c(-c2ccc(F)cc2)c(-c2ccncc2)[nH]n1-c1ccc(Cl)cc1 | 6.07% |
| Cn1cc(/C=C2\C(=O)Nc3ccc(S(N)(=O)=O)cc32)c2ccccc21 | 93.8% |
| Nc1ncnc2c1cnn2-c1ccccc1 | 88.2% |

Biological target: PKN2 (human) (UniProt Q16513)
Test: as above
Conditions: compound 0.5 µM; ATP 10 µM

Chain of PKN2 (human) (Q16513 whole entry, looked up): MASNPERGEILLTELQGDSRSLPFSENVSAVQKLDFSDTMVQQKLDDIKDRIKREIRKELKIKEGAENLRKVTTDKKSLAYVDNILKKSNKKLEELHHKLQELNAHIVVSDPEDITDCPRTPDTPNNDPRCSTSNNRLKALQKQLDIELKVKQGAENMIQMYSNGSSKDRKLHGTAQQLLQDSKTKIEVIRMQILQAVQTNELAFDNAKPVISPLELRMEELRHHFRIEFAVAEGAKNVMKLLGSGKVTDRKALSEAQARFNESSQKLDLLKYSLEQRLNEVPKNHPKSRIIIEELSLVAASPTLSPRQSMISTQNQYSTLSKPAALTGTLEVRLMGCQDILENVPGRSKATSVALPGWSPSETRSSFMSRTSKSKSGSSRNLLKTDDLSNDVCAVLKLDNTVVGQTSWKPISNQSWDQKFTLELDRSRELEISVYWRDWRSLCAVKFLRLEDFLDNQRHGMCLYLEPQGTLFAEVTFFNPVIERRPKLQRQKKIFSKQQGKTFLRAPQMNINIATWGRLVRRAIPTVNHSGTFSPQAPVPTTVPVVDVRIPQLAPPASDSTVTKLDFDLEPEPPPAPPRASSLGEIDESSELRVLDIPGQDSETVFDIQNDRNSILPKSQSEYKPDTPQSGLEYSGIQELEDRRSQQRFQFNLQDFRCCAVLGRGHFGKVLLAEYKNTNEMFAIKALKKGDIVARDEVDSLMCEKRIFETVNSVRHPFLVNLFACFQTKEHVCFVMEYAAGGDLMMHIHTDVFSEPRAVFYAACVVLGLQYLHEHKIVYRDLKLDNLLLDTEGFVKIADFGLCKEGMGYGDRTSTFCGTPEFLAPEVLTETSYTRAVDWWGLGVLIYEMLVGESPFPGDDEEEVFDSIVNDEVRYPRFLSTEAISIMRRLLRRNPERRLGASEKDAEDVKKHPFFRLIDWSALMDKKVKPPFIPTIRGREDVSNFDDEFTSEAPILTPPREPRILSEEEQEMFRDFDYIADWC

| SMILES | residual activity |
| --- | --- |
| COc1cc2c(N3CCN(C(=O)Nc4ccc(OC(C)C)cc4)CC3)ncnc2cc1OCCCN1CCCCC1 | 110% |
| N#C/C(=C1/Nc2ccccc2S1)c1ccnc(NCCc2cccnc2)n1 | 99.3% |
| O=c1c(-c2ccc(F)cc2)c(-c2ccncc2)[nH]n1-c1ccc(Cl)cc1 | 96.4% |
| Cn1cc(/C=C2\C(=O)Nc3ccc(S(N)(=O)=O)cc32)c2ccccc21 | 81.8% |
| Nc1ncnc2c1cnn2-c1ccccc1 | 125% |

Biological target: ERBB4 (human) (UniProt Q15303)
Test: as above
Conditions: compound 0.5 µM; ATP 10 µM

| SMILES | residual activity |
| --- | --- |
| COc1cc2c(N3CCN(C(=O)Nc4ccc(OC(C)C)cc4)CC3)ncnc2cc1OCCCN1CCCCC1 | 97.3% |
| N#C/C(=C1/Nc2ccccc2S1)c1ccnc(NCCc2cccnc2)n1 | 83.1% |
| O=c1c(-c2ccc(F)cc2)c(-c2ccncc2)[nH]n1-c1ccc(Cl)cc1 | 73.2% |
| Cn1cc(/C=C2\C(=O)Nc3ccc(S(N)(=O)=O)cc32)c2ccccc21 | 81.3% |
| Nc1ncnc2c1cnn2-c1ccccc1 | 101% |

Biological target: PRKCI (human) (UniProt P41743)
Test: as above
Conditions: compound 0.5 µM; ATP 10 µM

| SMILES | residual activity |
| --- | --- |
| COc1cc2c(N3CCN(C(=O)Nc4ccc(OC(C)C)cc4)CC3)ncnc2cc1OCCCN1CCCCC1 | 96.2% |
| N#C/C(=C1/Nc2ccccc2S1)c1ccnc(NCCc2cccnc2)n1 | 94.4% |
| O=c1c(-c2ccc(F)cc2)c(-c2ccncc2)[nH]n1-c1ccc(Cl)cc1 | 96.2% |
| Cn1cc(/C=C2\C(=O)Nc3ccc(S(N)(=O)=O)cc32)c2ccccc21 | 99.6% |
| Nc1ncnc2c1cnn2-c1ccccc1 | 97.3% |

Biological target: KIT (human) (UniProt P10721)
Test: as above
Conditions: compound 0.5 µM; ATP 10 µM

| SMILES | residual activity |
| --- | --- |
| COc1cc2c(N3CCN(C(=O)Nc4ccc(OC(C)C)cc4)CC3)ncnc2cc1OCCCN1CCCCC1 | 45.1% |
| N#C/C(=C1/Nc2ccccc2S1)c1ccnc(NCCc2cccnc2)n1 | 93.6% |
| O=c1c(-c2ccc(F)cc2)c(-c2ccncc2)[nH]n1-c1ccc(Cl)cc1 | 94.9% |
| Cn1cc(/C=C2\C(=O)Nc3ccc(S(N)(=O)=O)cc32)c2ccccc21 | 68.2% |
| Nc1ncnc2c1cnn2-c1ccccc1 | 89.5% |

Biological target: AURKA (human) (UniProt O14965)
Test: as above
Conditions: compound 0.5 µM; ATP 10 µM

| SMILES | residual activity |
| --- | --- |
| COc1cc2c(N3CCN(C(=O)Nc4ccc(OC(C)C)cc4)CC3)ncnc2cc1OCCCN1CCCCC1 | 108% |
| N#C/C(=C1/Nc2ccccc2S1)c1ccnc(NCCc2cccnc2)n1 | 83.8% |
| O=c1c(-c2ccc(F)cc2)c(-c2ccncc2)[nH]n1-c1ccc(Cl)cc1 | 94% |
| Cn1cc(/C=C2\C(=O)Nc3ccc(S(N)(=O)=O)cc32)c2ccccc21 | 20% |
| Nc1ncnc2c1cnn2-c1ccccc1 | 91.9% |

Biological target: MAPKAPK2 (human) (UniProt P49137)
Test: as above
Conditions: compound 0.5 µM; ATP 10 µM

| SMILES | residual activity |
| --- | --- |
| COc1cc2c(N3CCN(C(=O)Nc4ccc(OC(C)C)cc4)CC3)ncnc2cc1OCCCN1CCCCC1 | 100% |
